Like-named read-outs stand apart in the source and are kept apart here.
How the values were obtained:
[1] = for Serum TCA elimination t½: intravenous bolus 150 μmol TCA/kg with trace tritium-labeled TCA after gallbladder cannulation, one-phase decay, n = 5
Description: Differences between groups were analyzed using a two-tailed Student t test. […] Results were considered statistically significant at P < 0.05.

[2] = target: T1, NTCP (Mus musculus, UniProt O08705); settings: 1 μM Myrcludex B, 30 min preincubation, WT PMHs, 10 μM TCA, 1 minute
T1 sequence (O08705 1-362): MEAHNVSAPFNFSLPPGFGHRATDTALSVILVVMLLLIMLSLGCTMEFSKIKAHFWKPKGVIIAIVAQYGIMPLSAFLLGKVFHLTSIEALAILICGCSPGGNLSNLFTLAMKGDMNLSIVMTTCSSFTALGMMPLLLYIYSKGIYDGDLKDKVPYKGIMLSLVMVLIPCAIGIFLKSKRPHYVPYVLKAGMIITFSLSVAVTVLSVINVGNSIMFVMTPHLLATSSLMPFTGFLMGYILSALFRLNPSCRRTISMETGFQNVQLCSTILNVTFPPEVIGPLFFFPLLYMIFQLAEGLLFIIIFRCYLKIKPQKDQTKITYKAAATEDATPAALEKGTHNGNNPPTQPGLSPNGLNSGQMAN
Description: (§1) Bars represent the mean ± SEM for two independent experiments, each performed in triplicate. *P < 0.05. (B) Total serum BA concentrations in male and female WT and Slc10a1^−/− (KO) mice. Data are given as mean ± SEM on a ^10log scale for seven to 16 mice in each group, quantified using the total BA assay. Serum composition of (C) conjugated and (D) unconjugated BA species as quantified using high-pressure liquid chromatography. […] Unconjugated BA (U-BA) concentrations are the sum of ω-muricholic acid, α-muricholic acid, β-muricholic acid, cholic acid, UDCA, chenodeoxycholic acid, and DCA. Data are given as mean ± SEM on a ^10log scale for three to six mice in each group. *P < 0.05 (compared to WT levels). […] Conjugated BA (dark gray) and unconjugated BA (light gray) species are shown as a percentage of total, as quantified using high-pressure liquid chromatography. (F) Total serum BA levels in relation to body weights of WT (open dots) and KO (black dots) 8-week-old mice (n – 11–14). […]
(§2) mouse NTCP antibody in block ing buffer f or 1 hour. Af ter washings, the slides were incubated with goat anti-rabbit Alexa 568 IgG. Images were captured with a Leica SP8X […]
(§3) Primary hepatocyte isolation and sandwich culture
(§4) Primary mouse hepatocytes (PMHs) were isolated from wild- type and Slc10a1 -/- mice by a 2-step collagenase perfusion method. […]

[3] = test system: Slc10a1−/− PMHs; type: cell-based, mouse; settings: 1 μM Myrcludex B, sodium-dependent as well as sodium-free conditions
Description: as §1, §2, §3, §4

[4] = test system: NTCP; settings: at high concentrations; cited from earlier work
Description: (§5) During and after a meal, bile acids (BAs) are released into the small intestine, where they facilitate the absorption of dietary fat and fat-soluble vitamins.[1] The majority of BAs are reabsorbed in the terminal ileum and transported back to the liver through the portal circulation. At the basolateral membranes of the hepatocytes, BAs are taken up from the portal circulation, extruded across the canalicular hepatocyte membrane, and transported to the gallbladder to complete the enterohepatic circulation.[2] Conjugated BAs are transported across the basolateral hepatic membrane through a sodiu ...

[5] = test system: hepatitis B virus; settings: cited from earlier work
Description: as §5

Compound | Serum TCA elimination t½ ([1]; WT mice) | Lethality of the high dose of TCA ([1]; hypercholanemic Slc10a1−/− mice, intravenous bolus 150 μmol TCA/kg, shortly after injection) | Serum TCA elimination t½ ([1]; normocholanemic Slc10a1−/− mice) | Effect on TCA uptake under sodium-free conditions ([2]; NMDG buffer) | Effect on sodium-dependent TCA uptake ([2]; sodium-containing buffer) | Effect on TCA uptake in Slc10a1−/− PMHs [3] | NTCP-mediated BA uptake [4] | Virus entry mediated by NTCP [5]
C[C@H](CCC(=O)NCCS(=O)(=O)O)[C@H]1CC[C@H]2[C@@H]3[C@H](O)C[C@@H]4C[C@H](O)CC[C@]4(C)[C@H]3C[C@H](O)[C@]12C [TCA, taurocholic acid] | 1.5 min | lethal | 5.3 min |  |  |  |  | 
Myrcludex B |  |  |  | no effect | abrogated sodium-dependent TCA uptake | unaffected | inhibits NTCP-mediated BA uptake at high concentrations | blocked
